Test results: patent EP2070932A1, “Pyrazolotriazines” (4SC AG, priority 2007, dated 2009)
Structures can show the parent of a compound that is named as a salt. Where two headings read alike, the source gives them in different places.

Tested on: RKO p27 uninduced (proliferating)
Experiment: Alamar Blue cell viability assay, anti-proliferative / cytotoxic activity on proliferating RKO cells
Type: cell-based, human
Details: for EC50: Homo sapiens, read-out: -log EC50 [mol/l] RKO p27 uninduced (proliferating) (converted)
Procedure: The anti-proliferative / cytotoxic activity of the compounds described herein can be tested on subclones of RKO human colon adenocarcinoma cells (Schmidt et al., Oncogene 19, 2423-2429; 2000) using the Alamar Blue cell viability assay (described in O'Brien et al. Eur J Biochem 267, 5421-5426, 2000). The compounds are dissolved as 10 mM solutions in DMSO and subsequently diluted in semi-logarithmic steps. DMSO dilutions are further diluted 1:100 v:v into Dulbecco's modified Eagle's medium (DMEM) containing 10% fetal calf serum to a final concentration twice as much as the final concentration in the test. RKO subclones are seeded into 96 well flat bottom plates at a density of 4000 cells per well in a volume of 50 µl per well. 24 hours after seeding the 50 µl each of the compound dilutions in DMEM medium are added into each well of the 96 well plate. Each compound dilution is tested as triplicates. Wells containing untreated control cells are filled with 50 µl DMEM medium containing 1% DMSO. The cells are then incubated with the substances for 72 hours at 37°C in a humidified atmosphere containing 5% carbon dioxide. To determine the viability of the cells, 10 µl of an Alamar Blue solution (Biosource) are added and the fluorescence is measured at an extinction of 544 nm and an emission of 590 nm. For the calculation of the cell viability the emission value from untreated cells is set as 100% viability and the emission rates of treated cells are set in relation to the values of untreated cells. Viabilities are expressed as % values. The Graphpad Prism program is used for the calculation of EC50 values for anti-proliferative / cytotoxic activity out of the obtained dose-response curves. […]

[1] = RKOp27, RKO colon cancer cells, without Ponasterone A, 72 hours incubation, Alamar Blue
[2] = RKO colon cancer cells, without Ponasterone A, 72 hours incubation, Alamar Blue

Row | Structure (SMILES) | EC50 [1] | also measured
1 | Cc1ccc(C(=O)N(CCCN)C(c2nc3c(Cl)c(C)nn3c(=O)n2Cc2ccccc2)C(C)C)cc1 (racemic) [Example 1, N-(3-Amino-n-propyl)-N-[(RS)-1-(3-benzyl-8-chloro-7-methyl-4-oxo-3,4-dihydro-pyrazolo[1,5-a][1,3,5]triazin-2-yl)-2-methyl-n-propyl]-4-methyl-benzamide hydrochloride] | ≤ 0.1 µM | 
2 | Cc1ccc(C(=O)N(CCCN)C(c2nc3c(Cl)c(C)nn3c(=O)n2Cc2ccccc2)C(C)C)cc1 (racemic) [Example 1a, N-(3-Amino-n-propyl)-N-[(RS)-1-(3-benzyl-8-chloro-7-methyl-4-oxo-3,4-dihydro-pyrazolo[1,5-a][1,3,5]triazin-2-yl)-2-methyl-n-propyl]-4-methyl-benzamide] |  | -log EC50 [mol/l] RKO p27 uninduced (proliferating) [2]: -log EC50 [mol/l] RKO p27 uninduced (proliferating) >= 7.0
3 | Cc1ccc(C(=O)N(CCN)C(c2nc3c(Cl)c(C)nn3c(=O)n2Cc2ccccc2)C(C)C)cc1 (racemic) [Example 2, N-(2-Amino-ethyl)-N-[(RS)-1-(3-benzyl-8-chloro-7-methyl-4-oxo-3,4-dihydro-pyrazolo[1,5-a][1,3,5]triazin-2-yl)-2-methyl-n-propyl]-4-methyl-benzamide hydrochloride] | ≤ 0.1 µM | 
4 | Cc1ccc(C(=O)N(CCCN)C(c2nc3c(Cl)cnn3c(=O)n2Cc2ccccc2)C(C)C)cc1 (racemic) [Example 4, N-(3-Amino-n-propyl)-N-[(RS)-1-(3-benzyl-8-chloro-4-oxo-3,4-dihydro-pyrazolo[1,5-a][1,3,5]triazin-2-yl)-2-methyl-n-propyl]-4-methyl-benzamide hydrochloride] | ≤ 0.1 µM | 
5 | Cc1nn2c(=O)n(Cc3ccccc3)c(C(C(C)C)N(CCCN)C(=O)c3ccc(Cl)cc3)nc2c1Cl (racemic) [Example 5, N-(3-Amino-n-propyl)-N-[(RS)-1-(3-benzyl-8-chloro-7-methyl-4-oxo-3,4-dihydro-pyrazolo[1,5-a][1,3,5]triazin-2-yl)-2-methyl-n-propyl]-4-chloro-benzamide hydrochloride] | ≤ 0.1 µM | 
6 | Cc1nn2c(=O)n(Cc3ccccc3)c(C(C(C)C)N(CCCN)C(=O)c3ccc(F)cc3)nc2c1Cl (racemic) [Example 6, N-(3-Amino-n-propyl)-N-[(RS)-1-(3-benzyl-8-chloro-7-methyl-4-oxo-3,4-dihydro-pyrazolo[1,5-a][1,3,5]triazin-2-yl)-2-methyl-n-propyl]-4-fluoro-benzamide hydrochloride] | 0.1 to 1 µM | 
7 | Cc1cccc(C(=O)N(CCCN)C(c2nc3c(Cl)c(C)nn3c(=O)n2Cc2ccccc2)C(C)C)c1 (racemic) [Example 7, N-(3-Amino-n-propyl)-N-[(RS)-1-(3-benzyl-8-chloro-7-methyl-4-oxo-3,4-dihydro-pyrazolo[1,5-a][1,3,5]triazin-2-yl)-2-methyl-n-propyl]-3-methyl-benzamide hydrochloride] | ≤ 0.1 µM | 
8 | Cc1nn2c(=O)n(Cc3ccccc3)c(C(C(C)C)N(CCCN)C(=O)c3ccc(Br)cc3)nc2c1Cl (racemic) [Example 8, N-(3-Amino-n-propyl)-N-[(RS)-1-(3-benzyl-8-chloro-7-methyl-4-oxo-3,4-dihydro-pyrazolo[1,5-a][1,3,5]triazin-2-yl)-2-methyl-n-propyl]-4-bromo-benzamide hydrochloride] | ≤ 0.1 µM | 
9 | Cc1nn2c(=O)n(Cc3ccccc3)c(C(C(C)C)N(CCCN)C(=O)c3ccc(C(F)(F)F)cc3)nc2c1Cl.Cl (racemic) [Example 9, N-(3-Amino-n-propyl)-N-[(RS)-1-(3-benzyl-8-chloro-7-methyl-4-oxo-3,4-dihydro-pyrazolo[1,5-a][1,3,5]triazin-2-yl)-2-methyl-n-propyl]-trifluoromethyl-benzamide hydrochloride] |  | -log EC50 [mol/l] RKO p27 uninduced (proliferating) [2]: -log EC50 [mol/l] RKO p27 uninduced (proliferating) >= 7.0
10 | Cc1ccc(C(=O)N(CCCN)C(c2nc3cc(OC(F)F)nn3c(=O)n2Cc2ccccc2)C(C)C)cc1 (racemic) [Example 10, N-(3-Amino-n-propyl)-N-{(RS)-1-[3-benzyl-7-(1,1-difluoro-methoxy)-4-oxo-3,4-dihydro-pyrazolo[1,5-a] [1,3,5]triazin-2-yl]-2-methyl-n-propyl}-4-methyl-benzamide hydrochloride] | ≤ 0.1 µM | 
11 | Cc1nn2c(=O)n(Cc3ccccc3)c(C(C(C)C)N(CCCN)C(=O)c3ccc(Cl)c(Cl)c3)nc2c1Cl (racemic) [Example 11, N-(3-Amino-n-propyl)-N-[(RS)-1-(3-benzyl-8-chloro-7-methyl-4-oxo-3,4-dihydro-pyrazolo[1,5-a][1,3,5]triazin-2-yl)-2-methyl-n-propyl]-3,4-dichloro-benzamide hydrocloride] |  | EC50 (RKOp27, 72 h): 0.1 to 1 µM
12 | Cc1ccc(C(=O)N(CCCN)C(c2nc3c(Cl)c(C)nn3c(=O)n2Cc2ccccc2)C(C)C)c(F)c1.Cl (racemic) [Example 12, N-(3-Amino-n-propyl)-N-[(RS)-1-(3-benzyl-8-chloro-7-methyl-4-oxo-3,4-dihydro-pyrazolo[1,5-a][1,3,5]triazin-2-yl)-2-methyl-n-propyl]-2-fluoro-4-methyl-benzamide hydrocloride] |  | -log EC50 [mol/l] RKO p27 uninduced (proliferating) [2]: -log EC50 [mol/l] RKO p27 uninduced (proliferating) >= 7.0
13 | Cc1ccc(C(=O)N(CCCN)C(c2nc3c(Cl)c(C)nn3c(=O)n2Cc2ccccc2)C(C)C)cc1F.Cl (racemic) [Example 13, N-(3-Amino-n-propyl)-N-[(RS)-1-(3-benzyl-8-chloro-7-methyl-4-oxo-3,4-dihydro-pyrazolo[1,5-a][1,3,5]triazin-2-yl)-2-methyl-n-propyl]-3-fluoro-4-methyl-benzamide hydrocloride] |  | -log EC50 [mol/l] RKO p27 uninduced (proliferating) [2]: -log EC50 [mol/l] RKO p27 uninduced (proliferating) >= 7.0
14 | Cc1nn2c(=O)n(Cc3ccccc3)c(C(C(C)C)N(CCCN)C(=O)c3cccc(Cl)c3Cl)nc2c1Cl (racemic) [Example 14, N-(3-Amino-n-propyl)-N-[(RS)-1-(3-benzyl-8-chloro-7-methyl-4-oxo-3,4-dihydro-pyrazolo[1,5-a][1,3,5]triazin-2-yl)-2-methyl-n-propyl]-2,3-dichloro-benzamide hydrochloride] | 0.1 to 1 µM | 
15 | COc1ccc(C(=O)N(CCCN)C(c2nc3c(Cl)c(C)nn3c(=O)n2Cc2ccccc2)C(C)C)cc1 (racemic) [Example 15, N-(3-Amino-n-propyl)-N-[(RS)-1-(3-benzyl-8-chloro-7-methyl-4-oxo-3,4-dihydro-pyrazolo[1,5-a][1,3,5]triazin-2-yl)-2-methyl-n-propyl]-4-methoxy-benzamide hydrochloride] | ≤ 0.1 µM | 
16 | Cc1ccc(C(=O)N(CCCCN)C(c2nc3c(Cl)c(C)nn3c(=O)n2Cc2ccccc2)C(C)C)cc1 (racemic) [Example 16, N-(4-Amino-n-butyl)-N-[(RS)-1-(3-benzyl-8-chloro-7-methyl-4-oxo-3,4-dihydro-pyrazolo[1,5-a][1,3,5]triazin-2-yl)-2-methyl-n-propyl]-4-methyl-benzamide hydrocloride] |  | EC50 (RKOp27, 72 h): 0.1 to 1 µM
17 | Cc1ccc(C(=O)N(CCCN)C(c2nc3c(Cl)c(OC(F)F)nn3c(=O)n2Cc2ccccc2)C(C)C)cc1 (racemic) [Example 17, N-(3-Amino-n-propyl)-N-{(RS)-1-[3-benzyl-8-chloro-7-(1,1-difluoro-methoxy)-4-oxo-3,4-dihydro-pyrazolo[1,5-a] [1,3,5]triazin-2-yl]-2-methyl-n-propyl}-4-methyl-benzamide hydrochloride] | ≤ 0.1 µM | 
18 | Cc1ccc(C(=O)N(CCCN(C)C)C(c2nc3c(Cl)c(C)nn3c(=O)n2Cc2ccccc2)C(C)C)cc1 (racemic) [Example 19, N-[(RS)-(3-Benzyl-8-chloro-7-methyl-4-oxo-3,4-dihydro-pyrazolo[1,5-a][1,3,5]triazin-2-yl)-methyl-n-propyl]-N-(3-dimethylamino-n-propyl)-4-methyl-benzamide] |  | -log EC50 [mol/l] RKO p27 uninduced (proliferating) [2]: -log EC50 [mol/l] RKO p27 uninduced (proliferating) >= 7.0
19 | COc1cc2nc(C(C(C)C)N(CCCN)C(=O)c3ccc(C)cc3)n(Cc3ccccc3)c(=O)n2n1 (racemic) [Example 20, N-(3-Amino-n-propyl)-N-[(RS)-1-(3-benzyl-7-methoxy-4-oxo-3,4-dihydro-pyrazolo[1,5-a][1,3,5]triazin-2-yl)-2-methyl-n-propyl]-4-methyl-benzamide hydrochlorid] | ≤ 0.1 µM | 
20 | COc1nn2c(=O)n(Cc3ccccc3)c(C(C(C)C)N(CCCN)C(=O)c3ccc(C)cc3)nc2c1Cl (racemic) [Example 21, N-(3-Amino-n-propyl)-N-[(RS)-1-(3-benzyl-8-chloro-7-methoxy-4-oxo-3,4-dihydro-pyrazolo[1,5-a][1,3,5]triazin-2-yl)-2-methyl-n-propyl]-4-methyl-benzamide hydrochloride] | ≤ 0.1 µM | 
